One assay has as its target BoNT/A LC WT (Clostridium botulinum, UniProt P0DPI0). It counts as binding.
Assay [1] has as its target T1, BoNT/A LC (Clostridium botulinum, UniProt P0DPI0). Nature of the assay: biochemical. Type of assay: biochemical.
Assay [2] deals with BoNT/A1 cleavage of SNAP-25 in hiPSC-derived motor neurons. Briefly: cells. It counts as cell-based, human.
The target in assay [3] is T1, BoNT/A LC. Briefly: biochemical.
The target in assay [4] is T1, BoNT/A LC. Briefly: biochemical. The settings on record: read-out: inhibited BoNT/A LC activity.

Like-named read-outs stand apart in the source and are kept apart here.

Sequence of BoNT/A LC WT (P0DPI0 2-448 limits assumed): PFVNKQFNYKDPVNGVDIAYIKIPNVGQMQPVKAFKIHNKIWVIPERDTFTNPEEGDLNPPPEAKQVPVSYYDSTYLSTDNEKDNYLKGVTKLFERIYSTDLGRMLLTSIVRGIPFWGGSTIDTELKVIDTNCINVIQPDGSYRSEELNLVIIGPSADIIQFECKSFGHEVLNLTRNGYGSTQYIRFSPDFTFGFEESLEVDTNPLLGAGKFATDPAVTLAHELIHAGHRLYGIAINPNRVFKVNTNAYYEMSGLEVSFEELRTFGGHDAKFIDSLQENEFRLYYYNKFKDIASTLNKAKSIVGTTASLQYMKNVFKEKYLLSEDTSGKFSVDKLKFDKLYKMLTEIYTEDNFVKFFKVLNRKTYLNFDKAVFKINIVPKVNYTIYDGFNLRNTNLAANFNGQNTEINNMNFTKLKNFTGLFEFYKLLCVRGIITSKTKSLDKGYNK
T1 sequence (P0DPI0 2-448 limits assumed): as above

On to `O=c1cc(CNCc2ccc(-c3ccccc3)cc2)nc2c(O)cccn12` [Compound 27, 2-((([1,1′-biphenyl]-4-ylmethyl)amino)methyl)-9-hydroxy-4H-pyrido [1,2-a]pyrimidin-4-one], for which the “covalent adduct formation by HRMS (in words)” value (“covalent adduct formation” for short) on BoNT/A LC WT is “Neither of the reversible compounds 2 and 27 showed any change in mass”. Moreover, on BoNT/A LC [1], the IC50 was 300 ± 100 nM, the Ki was determined as 150 nM and the “potency compared to 2 (in words)” value is “significantly increased inhibitory potency”. 13000 nM corresponded to half-maximal inhibition in assay [2] (Homo sapiens, Neuron, 0.5 h) (IC50).

Turning to `O=c1cc(CNCc2cccc(Cl)c2)nc2c(O)cccn12` [Compound 18, 2-(((3-Chlorobenzyl)amino)methyl)-9-hydroxy-4H-pyrido [1,2-a]pyrimidin-4-one], the IC50 on BoNT/A LC [1] came to 1700 ± 300 nM. The “inhibition of SNAP-25 cleavage (in words)” value (“inhibition … (in words)” below) in assay [2] was “neither 2 nor 18 inhibited the cleavage of SNAP-25”.

`O=c1cc(COCc2cccc(Cl)c2)nc2c(O)cccn12` [Compound 35, 2-(((3-Chlorobenzyl)oxy)methyl)-9-hydroxy-4H-pyrido [1,2-a]pyrimidin-4-one] gave an IC50 against BoNT/A LC [1] of 7500 ± 500 nM. Besides, the “inhibition … (in words)” value in assay [2] is “did not have any apparent effect on SNAP-25 cleavage”.

Turning to `CS(=O)(=O)SCCCCCCc1ccn2c(=O)cc(CNCc3ccc(-c4ccccc4)cc3)nc2c1O` [Compound 83, S-(6-(2-((([1,1′-biphenyl]-4-ylmethyl)amino)methyl)-9-hydroxy-4-oxo-4H-pyrido [1,2-a]pyrimidin-8-yl)hexyl) methanesulfonothioate], on BoNT/A LC [3], the Ki stood at 3400 ± 500 nM, the kinact came out at 0.0028 ± 0.0002 s⁻¹ and the kinact/KI is 820 ± 30 M⁻¹ s⁻¹.

On to `O=c1cc(COCc2cccc(F)c2)nc2c(O)cccn12` [Compound 32, 2-(((3-Fluorobenzyl)oxy)methyl)-9-hydroxy-4H-pyrido [1,2-a]pyrimidin-4-one], for which, at BoNT/A LC [1], the IC50 stood at 11000 ± 1000 nM and the “less potent than 2 in the enzyme assay” value is roughly 10 fold. The “protection of SNAP-25 (in words)” value in assay [2] was “nearly complete protection of SNAP-25”.

Compound `O=C(O)C1CNCCN(Cc2cc(=O)n3cccc(O)c3n2)C1` (centres unmarked) [Compound 1] registered an IC50 against BoNT/A LC [1] of 7400 ± 500 nM. The inhibition at 40 µM at BoNT/A LC [4] was greater than 90%.

For `O=c1cc(CNCc2ccccc2)nc2c(O)cccn12` [Compound 2, 2-((Benzylamino)methyl)-9-hydroxy-4H-pyrido [1,2-a]pyrimidin-4-one], the “covalent adduct formation” value on BoNT/A LC WT is “Neither of the reversible compounds 2 and 27 showed any change in mass”. In addition, at BoNT/A LC [1], the IC50 is 900 ± 200 nM and the “fold more potent than initial lead 1” value is reported as “approximately seven-fold”. In addition, in assay [2], the “inhibition … (in words)” value was “neither 2 nor 18 inhibited the cleavage of SNAP-25”.

`CS(=O)(=O)SCCCCCc1ccn2c(=O)cc(CNCc3ccc(-c4ccccc4)cc3)nc2c1O` [Compound 82, S-(6-(2-((([1,1′-biphenyl]-4-ylmethyl)amino)methyl)-9-hydroxy-4-oxo-4H-pyrido [1,2-a]pyrimidin-8-yl)pentyl) methanesulfonothioate]: at BoNT/A LC [3], affinity was put at a Ki of 1870 ± 110 nM, the kinact came out at 0.0024 ± 0.0002 s⁻¹ and the kinact/KI is 1260 ± 130 M⁻¹ s⁻¹. The “covalent adduct formation” value on BoNT/A LC WT is “an increase in mass matching two covalent adducts”.

Take `O=c1cc(CN2CCc3cc(Cl)ccc32)nc2c(O)cccn12` [Compound 47, 2-((5-Chloroindolin-1-yl)methyl)-9-hydroxy-4H-pyrido [1,2-a]pyrimidin-4-one]: at BoNT/A LC [1], it took 900 ± 600 nM to reach half-maximal inhibition (IC50). In assay [2], the “protection of SNAP-25 (in words)” value is recorded as “protect against SNAP-25 cleavage”.

For `O=C(O)c1ccc2c(c1)N(Cc1cc(=O)n3cccc(O)c3n1)CC2` [Compound 54, 1-((9-Hydroxy-4-oxo-4H-pyrido [1,2-a]pyrimidin-2-yl)methyl)indoline-6-carboxylic acid], the IC50 against BoNT/A LC [1] was determined as 1200 ± 100 nM. Further, the “protection of SNAP-25 (in words)” value in assay [2] is on record as “protect against SNAP-25 cleavage”.

In the case of `CS(=O)(=O)SCCCCCCCc1ccn2c(=O)cc(CNCc3ccc(-c4ccccc4)cc3)nc2c1O` [Compound 84], on BoNT/A LC [3], the Ki came out at 32000 ± 6000 nM, the kinact was 0.0038 ± 0.0008 s⁻¹ and the kinact/KI came out at 120 ± 30 M⁻¹ s⁻¹.

These data come from paper PMC10001950 (International Journal of Molecular Sciences, 2023).
